# Numbers after ± are expanded uncertainties.
# Test: xn = mol fraction of the nth substance listed
# Settings: Liquid, Vibrating tube method, x1 = 1
compound,measurement,setting,value
CCCO [propan-1-ol] + Cc1ccccc1,mass density,"293.15 K, 100 kPa",803.5 ± 1 kg/m3
same,mass density,"293.15 K, 5000 kPa",807.3 ± 1 kg/m3
same,mass density,"293.15 K, 10000 kPa",810.9 ± 1 kg/m3
same,mass density,"293.15 K, 15000 kPa",814.3 ± 1 kg/m3
same,mass density,"293.15 K, 20000 kPa",817.7 ± 1 kg/m3
same,mass density,"293.15 K, 25000 kPa",821 ± 1 kg/m3
same,mass density,"293.15 K, 30000 kPa",824 ± 1 kg/m3
same,mass density,"293.15 K, 35000 kPa",827 ± 1.1 kg/m3
same,mass density,"293.15 K, 40000 kPa",829.9 ± 1.1 kg/m3
same,mass density,"293.15 K, 45000 kPa",832.7 ± 1.1 kg/m3
same,mass density,"293.15 K, 50000 kPa",835.4 ± 1.1 kg/m3
same,mass density,"293.15 K, 55000 kPa",838.1 ± 1.1 kg/m3
same,mass density,"293.15 K, 60000 kPa",840.7 ± 1.1 kg/m3
same,mass density,"293.15 K, 65000 kPa",843.2 ± 1.1 kg/m3
same,mass density,"303.15 K, 100 kPa",795.2 ± 1 kg/m3
same,mass density,"303.15 K, 5000 kPa",799.2 ± 1 kg/m3
same,mass density,"303.15 K, 10000 kPa",802.9 ± 1 kg/m3
same,mass density,"303.15 K, 15000 kPa",806.7 ± 1 kg/m3
same,mass density,"303.15 K, 20000 kPa",810.1 ± 1 kg/m3
same,mass density,"303.15 K, 25000 kPa",813.6 ± 1 kg/m3
same,mass density,"303.15 K, 30000 kPa",816.7 ± 1 kg/m3
same,mass density,"303.15 K, 35000 kPa",819.8 ± 1.1 kg/m3
same,mass density,"303.15 K, 40000 kPa",822.9 ± 1.1 kg/m3
same,mass density,"303.15 K, 45000 kPa",825.8 ± 1.1 kg/m3
same,mass density,"303.15 K, 50000 kPa",828.8 ± 1.1 kg/m3
same,mass density,"303.15 K, 55000 kPa",831.6 ± 1.1 kg/m3
same,mass density,"303.15 K, 60000 kPa",834.2 ± 1.1 kg/m3
same,mass density,"303.15 K, 65000 kPa",837 ± 1.1 kg/m3
same,mass density,"313.15 K, 100 kPa",787.6 ± 1 kg/m3
same,mass density,"313.15 K, 5000 kPa",791.9 ± 1 kg/m3
same,mass density,"313.15 K, 10000 kPa",795.9 ± 1 kg/m3
same,mass density,"313.15 K, 15000 kPa",799.7 ± 1 kg/m3
same,mass density,"313.15 K, 20000 kPa",803.3 ± 1 kg/m3
same,mass density,"313.15 K, 25000 kPa",806.8 ± 1 kg/m3
same,mass density,"313.15 K, 30000 kPa",810.2 ± 1 kg/m3
same,mass density,"313.15 K, 35000 kPa",813.5 ± 1.1 kg/m3
same,mass density,"313.15 K, 40000 kPa",816.6 ± 1.1 kg/m3
same,mass density,"313.15 K, 45000 kPa",819.7 ± 1.1 kg/m3
same,mass density,"313.15 K, 50000 kPa",822.7 ± 1.1 kg/m3
same,mass density,"313.15 K, 55000 kPa",825.5 ± 1.1 kg/m3
same,mass density,"313.15 K, 60000 kPa",828.3 ± 1.1 kg/m3
same,mass density,"313.15 K, 65000 kPa",831 ± 1.1 kg/m3
same,mass density,"323.15 K, 100 kPa",779.3 ± 1 kg/m3
same,mass density,"323.15 K, 5000 kPa",783.7 ± 1 kg/m3
same,mass density,"323.15 K, 10000 kPa",788 ± 1 kg/m3
same,mass density,"323.15 K, 15000 kPa",792 ± 1 kg/m3
same,mass density,"323.15 K, 20000 kPa",795.8 ± 1 kg/m3
same,mass density,"323.15 K, 25000 kPa",799.7 ± 1 kg/m3
same,mass density,"323.15 K, 30000 kPa",803.2 ± 1.1 kg/m3
same,mass density,"323.15 K, 35000 kPa",806.6 ± 1.1 kg/m3
same,mass density,"323.15 K, 40000 kPa",809.9 ± 1.1 kg/m3
same,mass density,"323.15 K, 45000 kPa",813 ± 1.1 kg/m3
same,mass density,"323.15 K, 50000 kPa",816.1 ± 1.1 kg/m3
same,mass density,"323.15 K, 55000 kPa",819 ± 1.1 kg/m3
same,mass density,"323.15 K, 60000 kPa",821.8 ± 1.1 kg/m3
same,mass density,"323.15 K, 65000 kPa",824.6 ± 1.1 kg/m3
same,mass density,"333.15 K, 100 kPa",770.5 ± 1 kg/m3
same,mass density,"333.15 K, 5000 kPa",775.4 ± 1 kg/m3
same,mass density,"333.15 K, 10000 kPa",780 ± 1 kg/m3
same,mass density,"333.15 K, 15000 kPa",784.3 ± 1 kg/m3
same,mass density,"333.15 K, 20000 kPa",788.4 ± 1 kg/m3
same,mass density,"333.15 K, 25000 kPa",792 ± 1 kg/m3
same,mass density,"333.15 K, 30000 kPa",795.7 ± 1.1 kg/m3
same,mass density,"333.15 K, 35000 kPa",799.2 ± 1.1 kg/m3
same,mass density,"333.15 K, 40000 kPa",802.6 ± 1.1 kg/m3
same,mass density,"333.15 K, 45000 kPa",805.9 ± 1.1 kg/m3
same,mass density,"333.15 K, 50000 kPa",809.1 ± 1.1 kg/m3
same,mass density,"333.15 K, 55000 kPa",812.3 ± 1.1 kg/m3
same,mass density,"333.15 K, 60000 kPa",815.2 ± 1.1 kg/m3
same,mass density,"333.15 K, 65000 kPa",818.1 ± 1.1 kg/m3
same,mass density,"343.15 K, 100 kPa",761 ± 1 kg/m3
same,mass density,"343.15 K, 5000 kPa",766 ± 1 kg/m3
same,mass density,"343.15 K, 10000 kPa",770.7 ± 1 kg/m3
same,mass density,"343.15 K, 15000 kPa",775.3 ± 1 kg/m3
same,mass density,"343.15 K, 20000 kPa",779.6 ± 1 kg/m3
same,mass density,"343.15 K, 25000 kPa",783.7 ± 1.1 kg/m3
same,mass density,"343.15 K, 30000 kPa",787.6 ± 1.1 kg/m3
same,mass density,"343.15 K, 35000 kPa",791.2 ± 1.1 kg/m3
same,mass density,"343.15 K, 40000 kPa",794.7 ± 1.1 kg/m3
same,mass density,"343.15 K, 45000 kPa",798.3 ± 1.1 kg/m3
same,mass density,"343.15 K, 50000 kPa",801.6 ± 1.1 kg/m3
same,mass density,"343.15 K, 55000 kPa",804.6 ± 1.1 kg/m3
same,mass density,"343.15 K, 60000 kPa",807.7 ± 1.1 kg/m3
same,mass density,"343.15 K, 65000 kPa",810.6 ± 1.1 kg/m3
same,mass density,"353.15 K, 100 kPa",752.2 ± 1 kg/m3
same,mass density,"353.15 K, 5000 kPa",757.6 ± 1 kg/m3
same,mass density,"353.15 K, 10000 kPa",762.7 ± 1 kg/m3
same,mass density,"353.15 K, 15000 kPa",767.6 ± 1 kg/m3
same,mass density,"353.15 K, 20000 kPa",772.1 ± 1 kg/m3
same,mass density,"353.15 K, 25000 kPa",776.3 ± 1.1 kg/m3
same,mass density,"353.15 K, 30000 kPa",780.4 ± 1.1 kg/m3
same,mass density,"353.15 K, 35000 kPa",784.1 ± 1.1 kg/m3
same,mass density,"353.15 K, 40000 kPa",787.7 ± 1.1 kg/m3
same,mass density,"353.15 K, 45000 kPa",791.8 ± 1.1 kg/m3
same,mass density,"353.15 K, 50000 kPa",795.1 ± 1.1 kg/m3
same,mass density,"353.15 K, 55000 kPa",798.5 ± 1.1 kg/m3
same,mass density,"353.15 K, 60000 kPa",801.7 ± 1.1 kg/m3
same,mass density,"353.15 K, 65000 kPa",805 ± 1.1 kg/m3

# Source: the NIST ThermoML archive (doi:10.1016/j.fluid.2006.05.032)
